Source: US11649245B2, “Cyclopropylamine compound as LSD1 inhibitor and use thereof” (HELIOEAST PHARMACEUTICAL CO., LTD., priority 2018, dated 2023)
Where a name gives a salt, the structure may show the parent alone.

What was measured:
HL60 cells = assay: Antiproliferation activity on HL60 cells (CellTiter-Glo, 6 days); format: cell-based; conditions: incubated for 6 days
Source text: Experimental purpose: to detect the antiproliferation activity of the compound to be tested on HL60 cells.
Experimental materials: RPMI-1640 culture medium, fetal bovine serum, penicillin/streptomycin antibiotics purchased from Wisent. CellTiter-Glo (chemiluminescent cell viability assay reagent) reagents purchased from Promega. HL60 cell line purchased from Nanjing Cobioer Co., Ltd. Nivo multi-label reader (PerkinElmer).
Experimental method: HL60 cells were planted in a white 384-well plate, 40 μL of cell suspension per well, 600 HL60 cells were contained therein. The cell plate was placed in a carbon dioxide incubator for overnight culture. The compounds to be tested were diluted 5-fold with a pipet until the 10th concentration, i.e., diluted from 2 mM to 1.024 nM, double duplicate well experiment was set. 78 μL of the culture medium was added to an intermediate plate, and then 2 μL per well of the serially diluted compounds were transferred to the corresponding positions on the intermediate plate, after mixing, 10 μL per well was transferred to the cell plate. The cell plate was incubated in a carbon dioxide incubator for 6 days. Another cell plate was prepared and the signal value on the day of dosing was read as the maximum value (Max value in the equation below) to participate in the data analysis. 20 μL of chemiluminescent cell viability assay reagent was added to each well of this cell plate, which was incubated at room temperature for 10 minutes to stabilize the luminescence signal. The multi-label reader was used for reading.
Data analysis: the equation (Sample-Min)/(Max-Min)*100% was used to convert the original data into the inhibition rate, the IC50 value can be obtained by curve fitting of four-parameters (“log(inhibitor) vs. response—Variable slope” mode in GraphPad Prism)).

[1] = tested on: MC38 mouse colon cancer transplanted tumor model; assay: In vivo pharmacodynamic study on MC38 mouse colon cancer transplanted tumor model; design: species or system C57BL/6 mice; conditions: compound 6 hydrochloride 1.5 mg/kg oral once a day, PD-1 mAb 5 mg/kg i.p. twice a week
Description: The purpose of this experiment was to evaluate the in vivo efficacy of the compounds of the present disclosure on MC38 mouse colon cancer transplanted tumor model.
Name: MC38 (Mouse Colon Cancer Cell)
Cell culture: 1640 medium containing 10% fetal bovine serum was used as culture medium, and the culture condition was 37° C., 5% carbon dioxide. The passage ratio was 1:2 to 1:3, the passage was performed 2-3 times per week.
0.1 mL (2×10^5 cells) of cells were subcutaneously inoculated into the right back of each mouse. On the same day, the animals were randomly grouped according to their body weight. […]
The experimental indicator is to investigate whether the tumor growth was inhibited, delayed or cured. Tumor diameters were measured with a vernier caliper twice a week. The tumor volume was calculated by the formula: V=0.5a×b^2, a and b respectively represent the long and short diameters of the tumor.
The efficacy of the compound was evaluated by relative tumor growth rate T/C (%). […] The relative tumor volume (RTV) was calculated based on the results of tumor measurement, the calculation formula was: RTV=Vt/V0, wherein V0 was the average tumor volume measured at the time of grouping administration (i.e., do), Vt is the average tumor volume measured at a single time, TRTV and CRTV were calculated from the data on the same day.

[2] = tested on: human small cell lung cancer NCI-H1417 xenograft tumor model; assay: In vivo pharmacodynamic study on NCI-H1417 subcutaneous xenograft tumor in CB-17 SCID mice; conditions: compound 6 hydrochloride 1.5 mg/kg oral once a day, cisplatin 1 mg/kg i.p. twice a week
Description: The purpose of the experiment was to evaluate the in vivo efficacy of the compounds of the present disclosure on subcutaneous xenograft tumor of human small cell lung cancer NCI-H1417 cells in a CB-17 SCID mouse model.
Human small cell lung cancer NCI-H1417 cells (ATCC) were cultured in vitro in a single layer, the culture conditions were RPMI-1640 culture medium supplemented with 10% fetal bovine serum, 37° C. 5% CO2. When the cell saturation reached 80%-90%, the cells were collected, counted, and inoculated.
0.2 mL of 10×10^6 NCI-H1417 cells were subcutaneously inoculated into the right back of each mouse (PBS: Matrigel=1:1). Group administration was started when the average volume reached 100-150 mm^3.
The vehicle used in the experiment was 0.5% methylcellulose solution, the preparation method was: 5 g of methylcellulose was weighed and dissolved in 800 mL ultrapure water, stirred evenly and made up to 1000 mL with ultrapure water. The test substance was dissolved in a solvent and prepared into a uniform solution of a certain concentration, and stored at 4° C.
Cisplatin (Cisplatin, manufacturer Qilu Pharmaceutical Co., Ltd., 10 mg/bottle freeze-dried powder for injection, lot number 7D011A8) was added to 10 mL 0.9% NaCl to make a 1 mg/mL mother liquor, and stored at room temperature and protected from light. The mother liquor was aliquoted into 0.63 mL and stored at room temperature. 5.67 mL 0.9% NaCl was added to one of the 0.63 mL mother liquor to make a 0.1 mg/mL solution.
The experimental indicator is to investigate whether tumor growth was inhibited, delayed, or cured. Tumor diameters were measured with a vernier caliper twice a week. The tumor volume was calculated by the calculation formula: V=0.5a×b^2, a and b respectively represent the long and short diameters of the tumor.
The anti-tumor effect of the compounds was evaluated by TGI (%). TGI (%) can reflect the tumor growth inhibition rate. TGI (%) calculation: TGI (%)=[1-(the average tumor volume at the end of the administration in a treatment group—the average tumor volume at the beginning of the administration in the treatment group)/(the average tumor volume at the end of the treatment of the solvent control group—the average tumor volume at the beginning of the treatment of the solvent control group)]×100%.

IC50 (HL60 cells): 14.7 nM
SMILES: O=C(O)c1ccc(CN2CCC3(CC2)CC(N[C@@H]2C[C@H]2c2ccccc2)CO3)cc1 (some centres unmarked) [Hydrochloride of the compound 6]
Tumor volume (28th day) ([1]; C57BL/6 mice, 28th day after administration): 1653 ± 893 mm^3 | T/C ([1]; relative tumor growth rate, 28th day): 92% | Tumor volume mean ± SEM (28th day) ([2]; CB-17 SCID mice): 187 ± 14 mm^3 | TGI ([2]; tumor growth inhibition rate, 28th day): 79.2%
